Reference: US20250319094A1, “COMPOSITION FOR PREVENTING OR TREATING ATOPIC DERMATITIS” (Yonsei University BioHealth Technology Holdings, Inc., priority 2022, published 2025)

Columns and labels:
[1] = test system: atopic dermatitis-induced flaky tail mice; assay: Treatment effect in HDM-induced atopic dermatitis mouse model (clinical photograph, dermatitis score); format: in vivo; settings: 50 μM or 100 μM, 200 μL on back, 4 weeks
Experimental: The backs of the mice were shaved and exfoliated with a 4% diluted sodium dodecyl sulfate solution (SIGMA Lot #BCCD5615) once every 3 days to remove dead skin cells, and House Dust Mite (HDM), a typical trigger/exacerbator of atopic dermatitis, was topically applied to the mice to induce atopic skin lesions. The house dust mite ointment used was Atopic dermatitis challenging ointment from Biostir (Osaka, Japan), and atopic dermatitis-induced mice were prepared as described above (see FIG. 1).
In order to determine whether the bentamapimod drug discovered above has a therapeutic effect on atopic dermatitis, experiments were conducted using the mouse model prepared in the preliminary example and divided into control and experimental groups according to the timeline diagram shown in FIG. 4. […] To further verify the treatment effect, the flaky tail Mice dermatitis score of the atopic dermatitis mouse model according to the drug treatment was calculated by Wilcoxon-signed rank test and shown in FIG. 6. […]

normal skin tissue = assay: Cell viability (CCK-8) cytotoxicity on normal skin tissue cells; format: cell-based; settings: overnight
Experimental: We sought to determine the optimal concentration of the drug Bentamapimod identified above that would not affect the cytotoxicity of the drug. To determine the final concentration of the drug, normal skin tissue was seeded as cells in […] 96-well plates using 5% (v/v) RPMI1640 medium (LONZA) and 1% penicillin/streptomycin medium and treated with bentamapimod at concentrations of 1 μM, 10 μM, 50 μM, 100 μM, and 200 μM, respectively, and incubated overnight in a 37° C. incubator. Then, 10 μl of Cell Counting Kit-8 drug (Dojindo Lot. PR863) was seeded into 96-well plates and the absorbance was measured at […] after 2 h.

[2] = test system: T cells in skin-draining lymph nodes; assay: FACS of T cell fractions in skin-draining lymph nodes of atopic dermatitis mouse model; format: in vivo
Experimental: (§1) To test the effect of the newly discovered bentamapimod drugs on skin-specific T cells, flaky tail mice were induced with atopic skin lesions using HDM three times a week until week 4 of the experiment as described in the Preparations and Examples above, and then treated with each drug at different concentrations for another 4 weeks. To determine changes in skin-specific T cells in each animal, single suspensions were then prepared from spleen, skin, and lymph nodes, and T cells were stained with anti-CD3, anti-CD4, anti-CD8, and anti-CD45 antibodies. Flow cytometric analysis of skin-specific T cells was performed using anti-CD69 and anti-CD103 antibodies to observe changes in the number and distribution of skin-specific T cells in response to drug application.

skin-specific T cells [3] = assay: Flow cytometry of T cell fractions in skin of atopic dermatitis mouse model; format: in vivo; settings: 4 weeks
Experimental: as §1

[4] = test system: atopic dermatitis-induced flaky tail mice; assay: Acute wiping (pain) and scratching (itching) behavior after drug application; format: in vivo, mouse
Text: The existing drug dexamethasone is widely used as a treatment for atopic dermatitis, but long-term use causes various local side effects such as skin atrophy, dilated skin capillaries, and hypopigmented spots. Tacrolimus, which was developed to minimize these long-term local side effects, solved the problem of long-term and permanent local side effects of steroid drugs, but short-term skin irritation symptoms are emerging as a new problem, as it is known that about 50% of patients experience burning and skin rash at the beginning of application. Therefore, it is necessary to overcome the skin irritation side effects, and we wanted to check whether the newly discovered drug of bentamapimod can resolve the above side effects while maintaining the effectiveness of the animal drug through behavioral analysis of pain and itching using Flaky Tail mice. Wiping the face with the forelegs was interpreted as a behavioral measure of pain in mice, and scratching with the hind legs was interpreted as a behavioral measure of itching (J Vis Exp. 2019 Sep. 27; (151)). […] Flaky tail mice were treated with 200 μL of the test agent per group for one week to facilitate comparison, and the number of itches and pain behaviors were quantified and graphed (see FIG. 8a and FIG. 8b).

skin-specific T cells [5] = assay: Flow cytometry of skin T cells from atopic dermatitis patient skin after drug application; format: cell-based, human; settings: immune cell fractions from skin tissue of atopic dermatitis patients
Experimental: To test the effect of the candidate drug on skin-specific T cells in human skin tissue, a single suspension was prepared using skin from a patient with atopic dermatitis. T cells were stained using anti-CD3, anti-CD4, anti-CD8, and anti-CD45 antibodies, and flow cytometry was performed on skin T cells using the skin TRM markers CD69 and CD103 to observe changes in the number and distribution of skin-specific T cells in response to drug application.

flaky tail mice = assay: Chronic itch behavior before and after application of test drug; format: in vivo, mouse; settings: drug 3 times a week for 4 weeks after 4 weeks HDM; before vs after application
Experimental: Additional experiments were performed to compare the ITCH behavior before and after application of the dexamethasone, tacrolimus, and bentamapimod agents disclosed above. Specifically, atopic dermatitis was induced by applying 100 mg of HDM ointment to the backs of flaky tail mice for 4 weeks, after which drug treatments were applied 3 times a week for 4 weeks, and the chronic itch behavior before and after application of these test drugs was quantified and graphed (see FIG. 9a and FIG. 9b).

[6] = at the beginning of application; cited from earlier work

Which results are given for `N#CC(c1ccnc(OCc2ccc(CN3CCOCC3)cc2)n1)c1nc2ccccc2s1` (stereo not drawn) [bentamapimod, α-[2-[[4-(4-morpholinylmethyl)phenyl]methoxy]-4-pyrimidinyl]-2-benzothiazoleacetonitrile]?
atopic dermatitis scores (Flaky tail Mice dermatitis score) ([1]; FIG. 6): equivalent to or better than those of conventional drugs; treatment effect on atopic dermatitis skin lesions (wounding, dryness, desquamation, erythema, hemorrhage, edema) ([1]; compared to conventional drugs, FIG. 5): clinically significant treatment effect; cell viability (normal skin tissue; 50 μM): greater than 90%; cell viability (normal skin tissue; 100 μM): greater than 90%; CD3+ T cells in skin-draining lymph nodes ([2]; 100 μM): statistically significantly lower; CD3+ CD4+ CD69+ CD103+ T cells ([2]; 100 μM, skin-draining lymph nodes): statistically significantly lower; fraction of T cells expressing CD69 among CD3+ CD4+ T cells ([2]; skin-draining lymph nodes): reduced; percentage of T cells compared to the 0.1% dexamethasone group ([2]; skin-draining lymph nodes): significantly reduced; percentage of CD3+, CD4+ T cells in the skin (skin-specific T cells [3]; 50 μM): significantly reduced in a dose-dependent manner; percentage of CD3+, CD4+ T cells in the skin (skin-specific T cells [3]; 100 μM): significantly reduced in a dose-dependent manner; percentage of CD69+ T cells and CD103+ T cells (skin-resident T cells) (skin-specific T cells [3]; skin): significantly reduced; percentage of skin-specific T cells compared to the control 0.1% dexamethasone group (skin-specific T cells [3]; skin): significantly reduced; local irritation symptoms such as itching and pain ([4]; 50 μM and 100 μM): did not cause local irritation symptoms; number of scratching and wiping behaviors versus control D.W group ([4]; 50 μM, 200 μL on back): no difference; number of scratching and wiping behaviors versus control D.W group ([4]; 100 μM, 200 μL on back): no difference; percentage of skin-specific T cells (skin-specific T cells [5]; 50 μM): significant dose-dependent decrease; percentage of skin-specific T cells (skin-specific T cells [5]; 100 μM): significant dose-dependent decrease; chronic scratching behavior, treatment effect (flaky tail mice): treatment effect was particularly significant

What does the source list for `C=CC[C@@H]1/C=C(\C)C[C@H](C)C[C@H](OC)[C@H]2O[C@@](O)(C(=O)C(=O)N3CCCC[C@H]3C(=O)O[C@H](/C(C)=C/[C@@H]3CC[C@@H](O)[C@H](OC)C3)[C@H](C)[C@@H](O)CC1=O)[C@H](C)C[C@@H]2OC` [tacrolimus]?
patients who experience burning and skin rash [6]: about 50%; time at which wiping behaviors peaked ([4]; 0.1% concentration, 200 μL on back): 30 min; number of scratching behaviors ([4]; 0.1% concentration, 200 μL on back, in 30 minutes): 17 times
